Literature values as cited in US20170252421A1 (priority 2014, published 2017).

In the case of CN(C)C(=N)N=C(N)N [metformin, Metformin], the “patients discontinuing the therapy due to the side effects” value (oral metformin) is listed as “up to 5%”, the “patients experiencing gastrointestinal side effects” value (oral metformin) is listed as “Up to 20%” and the “patients developing vitamin B12 deficiency” value (patients taking metformin) is listed as 77%. For the same compound, the “reduction of morbidity and mortality rates” value (treating insulin resistance) was “about 30%”.
